Assay results from paper PMC10714133 (RSC Advances, 2023).
Blank lines part the entries; values can stand above or below the compound they belong to.

Tests used:
P. falciparum 3D7 = test: Plasmodium lactate dehydrogenase; type: cell-based, Plasmodium falciparum; conditions: for Selectivity index (SI) P. falciparum: IC50 WRL-68 / EC50 Pf3D7; for Antimalarial activity class against 3D7 strain: class by EC50 threshold; for EC50 against 3D7, fold higher than CQ: relative to chloroquine diphosphate
P. knowlesi A1H1 = test: Plasmodium lactate dehydrogenase; type: cell-based, Plasmodium knowlesi; conditions: for Selectivity index (SI) P. knowlesi: IC50 WRL-68 / EC50 PkA1H1; for EC50 against A1H1 strain, fold higher than CQ: relative to chloroquine diphosphate; for Antimalarial activity class against A1H1 strain: class by EC50 threshold
[1] = tested on: WRL-68 cell (human normal liver cell line); test: MTT cytotoxicity assay; type: cell-based; conditions: read-out: WRL-68 cell (mammalian cell) IC50 (μM) ± SD, 72 hours incubation

Structure (SMILES): O=C(/C=C/c1cccc(O)c1)c1ccc(F)cc1 [Compound 1a, (E)-1-(4-Fluorophenyl)-3-(3-hydroxyphenyl)prop-2-en-1-one]
Selectivity index (SI) P. falciparum (P. falciparum 3D7): 1.50 | Selectivity index (SI) P. knowlesi (P. knowlesi A1H1): 1.34

EC50 against 3D7, fold higher than CQ (P. falciparum 3D7): 83 fold | EC50 against A1H1 strain, fold higher than CQ (P. knowlesi A1H1): about 3 fold
Structure (SMILES): O=C(/C=C/c1ccc(CN2CCCCC2)c(O)c1)c1ccc(Br)cc1 [Compound 2h, (E)-1-(4-Bromophenyl)-3-(3-hydroxy-4-(piperidin-1-ylmethyl)phenyl)prop-2-en-1-one]
IC50 [1]: > 99 µM | Antimalarial activity class against 3D7 strain (P. falciparum 3D7): potential (EC50 < 1 μM as potential activity)

Structure (SMILES): O=C(/C=C/c1ccc(O)c(CN2CCCCC2)c1)c1ccc(F)cc1 [Compound 2c, (E)-1-(4-Fluorophenyl)-3-(4-hydroxy-3-(piperidin-1-ylmethyl)phenyl)prop-2-en-1-one]
Selectivity index (SI) P. knowlesi (P. knowlesi A1H1): 1.09

Structure (SMILES): CCN(CC)CCCC(C)Nc1ccnc2cc(Cl)ccc12 (stereo not drawn) [CQ, chloroquine diphosphate, reference compound]
Selectivity index (SI) P. falciparum (P. falciparum 3D7): >2500 | Selectivity index (SI) P. knowlesi (P. knowlesi A1H1): >2500

Structure (SMILES): O=C(/C=C/c1ccc(O)cc1)c1ccc(F)cc1 [Compound 1b, (E)-1-(4-Fluorophenyl)-3-(4-hydroxyphenyl)prop-2-en-1-one]
Selectivity index (SI) P. knowlesi (P. knowlesi A1H1): 0.14

Structure (SMILES): O=C(/C=C/c1ccc(CN2CCCCC2)c(O)c1)c1ccc(F)cc1 [Compound 2a, (E)-1-(4-Fluorophenyl)-3-(3-hydroxy-4-(piperidin-1-ylmethyl)phenyl)prop-2-en-1-one]
Antimalarial activity class against 3D7 strain (P. falciparum 3D7): potential (EC50 < 1 μM as potential activity) | EC50 against 3D7, fold higher than CQ (P. falciparum 3D7): about 48 fold | Selectivity index (SI) P. knowlesi (P. knowlesi A1H1): 10.50 | Antimalarial activity class against A1H1 strain (P. knowlesi A1H1): active | EC50 against A1H1 strain, fold higher than CQ (P. knowlesi A1H1): about 66 fold

Structure (SMILES): CC1CCN(Cc2cc(/C=C/C(=O)c3ccc(Cl)cc3)ccc2O)CC1 [Compound 2f, (E)-1-(4-Chlorophenyl)-3-(4-hydroxy-3-((4-methylpiperidin-1-yl)methyl)phenyl)prop-2-en-1-one]
Selectivity index (SI) P. falciparum (P. falciparum 3D7): 4.73 | Antimalarial activity class against 3D7 strain (P. falciparum 3D7): good | Selectivity index (SI) P. knowlesi (P. knowlesi A1H1): 4.10 | Antimalarial activity class against A1H1 strain (P. knowlesi A1H1): active

Structure (SMILES): CC1CCN(Cc2ccc(/C=C/C(=O)c3ccc(Cl)cc3)cc2O)CC1 [Compound 2g, (E)-1-(4-Chlorophenyl)-3-(3-hydroxy-4-((4-methylpiperidin-1-yl)methyl)phenyl)prop-2-en-1-one]
Selectivity index (SI) P. falciparum (P. falciparum 3D7): 0.54 | Selectivity index (SI) P. knowlesi (P. knowlesi A1H1): 0.47

Structure (SMILES): O=C(/C=C/c1ccc(O)cc1)c1ccc(Cl)cc1 [Compound 1c, (E)-1-(4-Chlorophenyl)-3-(4-hydroxyphenyl)prop-2-en-1-one]
Selectivity index (SI) P. knowlesi (P. knowlesi A1H1): 0.52

Structure (SMILES): O=C(/C=C/c1ccc(O)c(CN2CCOCC2)c1)c1ccc(F)cc1 [Compound 2b, (E)-1-(4-Fluorophenyl)-3-(4-hydroxy-3-(morpholinomethyl)phenyl)prop-2-en-1-one]
Selectivity index (SI) P. knowlesi (P. knowlesi A1H1): 0.65

Structure (SMILES): O=C(/C=C/c1cccc(O)c1)c1ccc(Cl)cc1 [Compound 1d, (E)-1-(4-Chlorophenyl)-3-(3-hydroxyphenyl)prop-2-en-1-one]
Selectivity index (SI) P. knowlesi (P. knowlesi A1H1): 0.31
